Tested on: SW-480 colon cancer cells
Assay: SW480 colon carcinoma xenograft, intratumoral injection
Type: in vivo, nude mice
Description: The lead peptides were evaluated also in a colon carcinoma xenograft model, employing SW480 cells that harbor p53^R273H, P309S. The experiment was conducted on 15 mice, randomly divided into 3 groups: a control group treated with a cocktail of 3 ineffective peptides, a group treated with a cocktail of 3 effective pCAPs (250, 308, 325) and a group treated singly with pCAP-325. Tumors were allowed to reach visible size for 10 days before onset of treatment. […] Figures 6F, 6G show the mean weight and volume of excised tumors.
Figure 6 Effect of lead peptides on tumor progression in vivo; colon cancer xenograft model In vivo effect of the indicated peptides in a mouse xenograft model of SW-480 colon cancer cells. 10^6 cells were injected and tumors were allowed to establish for 10 days. […] D., E. - Box plot of tumor volume and weight, respectively. TEXT PRINTED IN THE PICTURE: (A) Control peptides: SW-480 colon carcinoma cells (p53^273,309): 240% | (B) pCAP mix: SW-480 colon carcinoma cells (p53^273,309): -97% | (C) pCAP-325: SW-480 colon carcinoma cells (p53^273,309): -93.6% DOUBTS OF THE COPYIST ABOUT THIS PICTURE: Panels A-C: no measure is printed with the percentages (240%, -97%, -93.6%); each stands only beside a bracket at the right end of the plot
Mice (6 weeks athymic nude) were injected subcutaneously with 2×10^5-10^6 cells into each […]. All cell lines employed in these experiments stably express a luciferase reporter gene to enable monitoring of tumor growth by live imaging. 4-18 days later, when tumors reached visible size, the mice were randomly divided into several groups: a control group, treated with either a single control peptide or a mix of 2-3 control pCAPs, and groups treated with effective peptides, either a single peptide or a mix of three peptides. Peptides were administered by intratumoral injection of 6-10μg peptide per tumor in 40μl PBS, three times a week. Tumor growth over time was measured by live imaging, using the IVIS2000 system. Exposure time was calibrated to 20 seconds. 16 images were taken over 8 minutes and peak luminescence values were taken for each tumor. Experiments were conducted until tumors reached maximal allowed size of 1cm^3, at which time were sacrificed and tumors extracted, measured and weighed.

[1] = Experiment 4, SW-480 p53^R273H,P309S
[2] = Experiment 4, SW-480 p53^R273H,P309S, excised tumors

myr-RRIRDPRILLLHFD [pCAP-325]
% of tumors total regression [1]: 20%
IVIS average ratio to day 0 [1]: 6.4%
Samples average size [2]: 0.12
Samples average weight [2]: 0.1
tumor size decrease (SW480 xenograft, intratumoral three times a week, mix 2μg of each peptide or pCAP-325 6μg, live imaging): 93.6%

— article PMC4914250, “Cancer therapeutic approach based on conformational stabilization of mutant p53 protein by small peptides” (Oncotarget, 2016)
